Results reported in patent publication US6737383B1, “Herbicidal oxadiazolidines” (priority 1999, dated 2004).

Columns and labels:
wild oat = test: Test B pre/postemergence wild oat; format: in vivo, Avena fatua
Summary of the method: (§1)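 Test chemicals in a non-phytotoxic solvent mixture with surfactant were sprayed preemergence onto planted seeds and postemergence onto plants 2 to 18 cm tall (1- to 4-leaf stage). After twelve to sixteen days in a greenhouse, injury was visually rated against untreated controls from 0 (no effect) to 10 (complete control).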

velvetleaf = test: Test B pre/postemergence velvetleaf; format: in vivo, Abutilon theophrasti
Summary of the method: as §1

cocklebur = test: Test B pre/postemergence cocklebur; format: in vivo, Xanthium strumarium
Summary of the method: as §1

wheat = test: Test B pre/postemergence wheat; format: in vivo, Triticum aestivum
Summary of the method: as §1

bedstraw = test: Test B pre/postemergence bedstraw; format: in vivo, Galium aparine
Summary of the method: as §1

morningglory = test: Test B pre/postemergence morningglory; format: in vivo, Ipomoea hederacea
Summary of the method: as §1

blackgrass = test: Test B pre/postemergence blackgrass; format: in vivo, Alopecurus myosuroides
Summary of the method: as §1

giant foxtail = test: Test B pre/postemergence giant foxtail; format: in vivo, Setaria faberii
Summary of the method: as §1

surinam grass = test: Test B pre/postemergence surinam grass; format: in vivo, Brachiaria decumbens
Summary of the method: as §1

corn = test: Test B pre/postemergence corn; format: in vivo, Zea mays
Summary of the method: as §1

crabgrass = test: Test B pre/postemergence crabgrass; format: in vivo, Digitaria sanguinalis
Summary of the method: as §1

purple nutsedge = test: Test B pre/postemergence purple nutsedge; format: in vivo, Cyperus rotundus
Summary of the method: as §1

[1] = Preemergence, Rate 62 g/ha, scale of 0 to 10 where 0 is no effect and 10 is complete control
[2] = Preemergence, Rate 125 g/ha, 0 is no effect, 10 is complete control
[3] = Preemergence, Rate 250 g/ha, scale 0 to 10, 0 is no effect, 10 is complete control
[4] = Preemergence, Rate 500 g/ha, scale 0 to 10 (0 no effect, 10 complete control)
[5] = Rate 250 g/ha, Postemergence, scale 0 to 10, 0 is no effect, 10 is complete control
[6] = Rate 500 g/ha, Postemergence, scale 0 to 10
[7] = Postemergence, Rate 125 g/ha, scale of 0 to 10 where 0 is no effect and 10 is complete control
[8] = Rate 62 g/ha, Postemergence, scale of 0 to 10 where 0 is no effect and 10 is complete control

## CC1CCCCC1n1c(=O)on(C(=O)N(c2ccc(F)cc2)C(C)C)c1=O (centres unmarked) [Compound 161]
Wild oat; [1]
  Wild oats plant response rating: 0
Wild oat; [2]
  Wild oats plant response rating (0 to 10 scale): 0
Wild oat; [3]
  Wild oats plant response rating: 3
Wild oat; [4]
  Wild oats plant response rating: 6
Wild oat; [5]
  Plant response rating, Wild oats: 0
Wild oat; [6]
  Wild oats plant response rating: 0
velvetleaf; [1]
  Velvetleaf plant response rating: 0
velvetleaf; [2]
  Velvetleaf plant response rating (0 to 10 scale): 0
velvetleaf; [3]
  Velvetleaf plant response rating: 0
velvetleaf; [4]
  Velvetleaf plant response rating: 0
velvetleaf; [5]
  Plant response rating, Velvetleaf: 2
velvetleaf; [6]
  Velvetleaf plant response rating: 6
cocklebur; [7]
  Cocklebur plant response rating: 0
cocklebur; [1]
  Cocklebur plant response rating: 0
cocklebur; [2]
  Cocklebur plant response rating (0 to 10 scale): 0
cocklebur; [3]
  Cocklebur plant response rating: 0
cocklebur; [4]
  Cocklebur plant response rating: 0
cocklebur; [8]
  Cocklebur plant response rating: 0
cocklebur; [5]
  Plant response rating, Cocklebur: 0
cocklebur; [6]
  Cocklebur plant response rating: 3
wheat; [1]
  Wheat plant response rating: 0
wheat; [2]
  Wheat plant response rating (0 to 10 scale): 0
wheat; [3]
  Wheat plant response rating: 0
wheat; [4]
  Wheat plant response rating: 2
wheat; [5]
  Plant response rating, Wheat: 0
wheat; [6]
  Wheat plant response rating: 0
bedstraw; [7]
  Bedstraw plant response rating: 3
bedstraw; [1]
  Bedstraw plant response rating: 0
bedstraw; [2]
  Bedstraw plant response rating (0 to 10 scale): 0
bedstraw; [3]
  Bedstraw plant response rating: 0
bedstraw; [4]
  Bedstraw plant response rating: 0
bedstraw; [8]
  Bedstraw plant response rating: 0
bedstraw; [5]
  Plant response rating, Bedstraw: 4
bedstraw; [6]
  Bedstraw plant response rating: 4
morningglory; [7]
  Morningglory plant response rating: 5
morningglory; [1]
  Morningglory plant response rating: 0
morningglory; [2]
  Morningglory plant response rating (0 to 10 scale): 0
morningglory; [3]
  Morningglory plant response rating: 0
morningglory; [4]
  Morningglory plant response rating: 0
morningglory; [8]
  Morningglory plant response rating: 4
morningglory; [5]
  Plant response rating, Morningglory: 7
morningglory; [6]
  Morningglory plant response rating: 10
blackgrass; [7]
  Blackgrass plant response rating: 0
blackgrass; [1]
  Blackgrass plant response rating: 3
blackgrass; [3]
  Blackgrass plant response rating: 7
blackgrass; [4]
  Blackgrass plant response rating: 9
blackgrass; [8]
  Blackgrass plant response rating: 0
blackgrass; [5]
  Plant response rating, Blackgrass: 3
blackgrass; [6]
  Blackgrass plant response rating: 4
Giant foxtail; [7]
  Giant foxtail plant response rating: 0
Giant foxtail; [1]
  Giant foxtail plant response rating: 4
Giant foxtail; [2]
  Giant foxtail plant response rating (0 to 10 scale): 9
Giant foxtail; [3]
  Giant foxtail plant response rating: 9
Giant foxtail; [4]
  Giant foxtail plant response rating: 10
Giant foxtail; [8]
  Giant foxtail plant response rating: 0
Giant foxtail; [5]
  Plant response rating, Giant foxtail: 3
Giant foxtail; [6]
  Giant foxtail plant response rating: 7
Surinam grass; [7]
  B. signalgrass plant response rating: 0
Surinam grass; [1]
  B. signalgrass plant response rating: 0
Surinam grass; [2]
  B. signalgrass plant response rating (0 to 10 scale): 0
Surinam grass; [3]
  B. signalgrass plant response rating: 5
Surinam grass; [4]
  B. signalgrass plant response rating: 5
Surinam grass; [8]
  B. signalgrass plant response rating: 0
Surinam grass; [5]
  Plant response rating, B. signalgrass: 2
Surinam grass; Rate 500 g/ha, Postemergence, scale 0 to 10, 0 no effect, 10 complete control
  B. signalgrass plant response rating: 7
corn; [7]
  Corn plant response rating: 0
corn; [1]
  Corn plant response rating: 0
corn; [2]
  Corn plant response rating (0 to 10 scale): 0
corn; [3]
  Corn plant response rating: 0
corn; [4]
  Corn plant response rating: 0
corn; [8]
  Corn plant response rating: 0
corn; [5]
  Plant response rating, Corn: 0
corn; [6]
  Corn plant response rating: 0
crabgrass; [7]
  Crabgrass plant response rating: 2
crabgrass; [1]
  Crabgrass plant response rating: 4
crabgrass; [2]
  Crabgrass plant response rating (0 to 10 scale): 8
crabgrass; [3]
  Crabgrass plant response rating: 9
crabgrass; [4]
  Crabgrass plant response rating: 9
crabgrass; [8]
  Crabgrass plant response rating: 0
crabgrass; [5]
  Plant response rating, Crabgrass: 7
crabgrass; [6]
  Crabgrass plant response rating: 9
Purple nutsedge; [7]
  Nutsedge plant response rating: 0
Purple nutsedge; [1]
  Nutsedge plant response rating: 0
Purple nutsedge; [2]
  Nutsedge plant response rating (0 to 10 scale): 0
Purple nutsedge; [3]
  Nutsedge plant response rating: 0
Purple nutsedge; [4]
  Nutsedge plant response rating: 0
Purple nutsedge; [8]
  Nutsedge plant response rating: 0
Purple nutsedge; [5]
  Plant response rating, Nutsedge: 0
Purple nutsedge; [6]
  Nutsedge plant response rating: 0
